Results taken from paper PMC5784158, “New 2-Aryl-9-methyl-β-carbolinium salts as Potential Acetylcholinesterase Inhibitor agents: Synthesis, Bioactivity and Structure–Activity Relationship” (Scientific Reports, 2018).
Where two headings read alike, the source gives them in different places.

Target: AChE (Musca domestica, UniProt Q7YWJ9)
Assay: biochemical
Assay type: biochemical, fly
Conditions: for Inhibition rate (%): test concentration of the compound 10 μM
Description: AChE (E.C. 3.1.1.7) (BR, 200 u/mg) from fly’s head and BuChE (E.C. 3.1.1.8) (BR, 20 u/mg) from horse serum were purchased from Shanghai Yuanye biological technology Co. Ltd (Shanghai, China).
The inhibitory activities of the compounds against AChE were evaluated according to Ellman’s coupled enzyme assay[47] with the following modifications. 90 μL potassium phosphate buffer (PBS, 0.1 M, pH 7.4), 10 μL the solution of 2 units/mL AChE in 0.1 M PBS (pH 7.4) and 10 μL the solution of 200 μM test compounds in the mixed solution of methanol-PBS (pH 7.4) (1:9, V/V) were added to each well of a 96-well plate. The methanol-PBS solution was used as a blank control. After incubation at room temperature for 10 min, 60 μL the solution of 10 mM DTNB in PBS was added into each the well. The plate was placed on crushed ices and cooled for 20 min. To each the well was added 30 μL the solution of 7.5 mM ATCh in PBS (pH 7.4). […] Each test was performed in triplicate. Inhibition rates of the enzyme were calculated relative to a control sample. The inhibitory activities against BuChE were measured as described above for AChE, using 0.7 unit/mL BuChE and 4 mM BuTCh instead of AChE and ATCh as the enzyme and substrate, respectively.
The probit value of the average inhibition rate for each test concentration and the corresponding lg[concentration] were used to establish enzyme inhibition regression equation by the linear least-square fitting method. IC50 values were calculated from the equations.

[1] = Estimated values based on the results in Table 1 (inhibition rate at 10 μM), read-out: IC50 AChE, estimated values

Chain of AChE (Q7YWJ9 81-659): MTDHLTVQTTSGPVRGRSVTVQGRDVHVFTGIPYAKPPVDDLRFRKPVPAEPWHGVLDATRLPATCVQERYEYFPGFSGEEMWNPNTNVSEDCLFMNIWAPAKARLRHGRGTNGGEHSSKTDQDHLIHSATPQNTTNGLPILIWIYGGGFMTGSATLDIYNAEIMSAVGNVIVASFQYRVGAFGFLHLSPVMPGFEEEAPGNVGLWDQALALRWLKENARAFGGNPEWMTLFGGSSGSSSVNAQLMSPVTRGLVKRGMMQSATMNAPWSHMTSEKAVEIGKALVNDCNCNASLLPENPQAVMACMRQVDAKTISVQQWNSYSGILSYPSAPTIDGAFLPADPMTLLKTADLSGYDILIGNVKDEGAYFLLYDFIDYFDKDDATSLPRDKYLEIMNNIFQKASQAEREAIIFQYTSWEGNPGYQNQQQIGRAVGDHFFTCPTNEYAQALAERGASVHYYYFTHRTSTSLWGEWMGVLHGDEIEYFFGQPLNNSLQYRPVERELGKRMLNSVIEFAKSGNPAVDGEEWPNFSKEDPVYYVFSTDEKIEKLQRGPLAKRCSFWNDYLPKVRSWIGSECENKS

| Compound | IC50 [1] [µM] | Inhibition rate (%) | IC50 (10 μM, read-out: IC50 AChE, NA) [µM] | Inhibition rate (%) (10 µM) [vw %] | IC50 (read-out: IC50 ± S.D AChE) [µM] |
| --- | --- | --- | --- | --- | --- |
| Cn1c2c(c3ccccc31)CC[N+](c1ccccc1F)=C2.[Br-] [Compound A2] | > 10 | 15.1 ± 2.8 mnop % | – | – | – |
| Cn1c2c(c3ccccc31)CC[N+](c1cccc(F)c1)=C2.[Br-] [Compound A3] | > 10 | 22.4 ± 1.1 l % | – | – | – |
| Cn1c2c(c3ccccc31)CC[N+](c1ccccc1Cl)=C2.[Br-] [Compound A5] | > 10 | 2.4 ± 8.0 stu % | – | – | – |
| Cn1c2c(c3ccccc31)CC[N+](c1cccc(Cl)c1)=C2.[Br-] [Compound A6] | > 10 | 19.3 ± 4.0 lm % | – | – | – |
| Cn1c2c(c3ccccc31)CC[N+](c1ccccc1Br)=C2.[Br-] [Compound A8] | > 10 | 5.9 ± 1.0 qrs % | – | – | – |
| Cn1c2c(c3ccccc31)CC[N+](c1cccc(Br)c1)=C2.[Br-] [Compound A9] | > 10 | 16.2 ± 3.3 mno % | – | – | – |
| Cn1c2c(c3ccccc31)CC[N+](c1ccccc1I)=C2.[Br-] [Compound A11] | – | −10.6 ± 3.0 w % | > 10 | – | – |
| Cn1c2c(c3ccccc31)CC[N+](c1cccc(I)c1)=C2.[Br-] [Compound A12] | > 10 | 10.1 ± 2.8 pqr % | – | – | – |
| Cn1c2c(c3ccccc31)CC[N+](c1ccccc1O)=C2.[Br-] [Compound A14] | > 10 | 23.2 ± 2.5 kl % | – | – | – |
| COc1ccccc1[N+]1=Cc2c(c3ccccc3n2C)CC1.[Br-] [Compound A17] | > 10 | 5.8 ± 2.4 qrs % | – | – | – |
| COc1cccc([N+]2=Cc3c(c4ccccc4n3C)CC2)c1.[Br-] [Compound A18] | > 10 | 4.7 ± 1.5 rst % | – | – | – |
| Cc1ccccc1[N+]1=Cc2c(c3ccccc3n2C)CC1.[Br-] [Compound A20] | > 10 | 44.3 ± 1.7 j % | – | – | – |
| Cc1cccc([N+]2=Cc3c(c4ccccc4n3C)CC2)c1.[Br-] [Compound A21] | > 10 | 28.6 ± 1.7 k % | – | – | – |
| Cn1c2c(c3ccccc31)CC[N+](c1ccccc1C#N)=C2.[Br-] [Compound A23] | > 10 | 10.1 ± 1.6 pqr % | – | – | – |
| Cn1c2c(c3ccccc31)CC[N+](c1cccc(C#N)c1)=C2.[Br-] [Compound A24] | > 10 | 18.9 ± 0.3 lmn % | – | – | – |
| Cn1c2c(c3ccccc31)CC[N+](c1ccc(C#N)cc1)=C2.[Br-] [Compound A25] | > 10 | 15.6 ± 1.8 mnop % | – | – | – |
| Cn1c2c(c3ccccc31)CC[N+](c1cccc(C(F)(F)F)c1)=C2.[Br-] [Compound A26] | > 10 | 12.8 ± 2.1 kln % | – | – | – |
| Cn1c2c(c3ccccc31)CC[N+](c1ccc(C(F)(F)F)cc1)=C2.[Br-] [Compound A27] | > 10 | 28.4 ± 1.0 k % | – | – | – |
| Cn1c2c(c3ccccc31)CC[N+](c1cccc([N+](=O)[O-])c1)=C2.[Br-] [Compound A28] | > 10 | 14.5 ± 3.9 mnop % | – | – | – |
| Cn1c2c(c3ccccc31)CC[N+](c1c(F)cccc1F)=C2.[Br-] [Compound A29] | – | −3.3 ± 2.0 uv % | > 10 | – | – |
| Cn1c2c(c3ccccc31)CC[N+](c1ccc(Cl)cc1Cl)=C2.[Br-] [Compound A30] | – | −0.5 ± 2.4 tu % | > 10 | – | – |
| Cn1c2c(c3ccccc31)CC[N+](c1cc(Cl)cc(Cl)c1)=C2.[Br-] [Compound A31] | – | 0.7 ± 0.5 stu % | > 10 | – | – |
| Cn1c2c(c3ccccc31)CC[N+](c1ccc(Br)cc1F)=C2.[Br-] [Compound A32] | > 10 | 11.1 ± 2.8 opq % | – | – | – |
| Cn1c2c(c3ccccc31)CC[N+](c1ccc(Br)cc1Br)=C2.[Br-] [Compound A33] | – | no activity | > 10 | −7.0 ± 8.3 | – |

| Compound | IC50 [1] [µM] | Inhibition rate (%) | IC50 (10 μM, read-out: IC50 AChE, NA) [µM] | Inhibition rate (%) (10 µM) [vw %] | IC50 (read-out: IC50 ± S.D AChE) [µM] |
| --- | --- | --- | --- | --- | --- |
| CC(C)Cn1c2c(c3ccccc31)CC[N+](c1ccccc1)=C2.[Br-] [Compound A43] | > 10 | 46.5 ± 1.9 ghi % | – | – | – |
| C1=[N+](c2ccccc2)CCc2c1n(Cc1ccccc1)c1ccccc21.[Br-] [Compound A44] | > 10 | 31.2 ± 4.4 ef % | – | – | – |
| CCOC(=O)Cn1c2c(c3ccccc31)CC[N+](c1ccccc1)=C2.[Br-] [Compound A45] | > 10 | 38.8 ± 4.6 j % | – | – | – |
| Brc1ccc([N+]2=Cc3[nH]c4ccccc4c3CC2)cc1.[Br-] [Compound A47] | > 10 | 16.0 ± 1.7 mnop % | – | – | – |
| Cn1c2ccccc2c2cc[n+](-c3ccccc3)cc21.[Br-] [Compound B1, 9-Methyl-2-phenyl-β-carboline bromide] | – | 71.5 ± 0.3 l % | – | – | 3.18 ± 0.12 |
| Cn1c2ccccc2c2cc[n+](-c3ccccc3Cl)cc21.[Br-] [Compound B5, 9-Methyl-2-(2-chlorophenyl)-β-carboline bromide] | > 10 | 38.5 ± 1.9 st % | – | – | – |
| Cn1c2ccccc2c2cc[n+](-c3ccccc3Br)cc21.[Br-] [Compound B8, 9-Methyl-2-(2-bromophenyl)-β-carboline bromide] | > 10 | 32.1 ± 0.9 u % | – | – | – |
| Cn1c2ccccc2c2cc[n+](-c3cccc(Br)c3)cc21.[Br-] [Compound B9, 9-Methyl-2-(3-bromophenyl)-β-carboline bromide] | ~10 | 48.8 ± 6.6 q % | – | – | – |
| Cn1c2ccccc2c2cc[n+](-c3ccccc3I)cc21.[Br-] [Compound B11, 9-Methyl-2-(2-iodohenyl)-β-carboline bromide] | > 10 | 43.3 ± 1.8 r % | – | – | – |
| Cn1c2ccccc2c2cc[n+](-c3ccccc3O)cc21.[Br-] [Compound B14, 9-Methyl-2-(2-hydroxyhenyl)-β-carboline bromide] | > 10 | 23.9 ± 4.3 v % | – | – | – |
| COc1ccccc1-[n+]1ccc2c3ccccc3n(C)c2c1.[Br-] [Compound B17, 9-Methyl-2-(2-methoxylphenyl)-β-carboline bromide] | > 10 | 41.0 ± 2.9 rs % | – | – | – |
| Cn1c2ccccc2c2cc[n+](-c3ccc(C#N)cc3)cc21.[Br-] [Compound B25, 9-Methyl-2-(4-cyanophenyl)-β-carboline bromide] | > 10 | 36.8 ± 0.8 t % | – | – | – |
| Cn1c2ccccc2c2cc[n+](-c3cccc(C(F)(F)F)c3)cc21.[Br-] [Compound B26, 9-Methyl-2-(3-trifluoromethylphenyl)-β-carboline bromide] | > 10 | 41.0 ± 1.9 rs % | – | – | – |
| Cn1c2ccccc2c2cc[n+](-c3cccc([N+](=O)[O-])c3)cc21.[Br-] [Compound B28, 9-Methyl-2-(3-nitrophenyl)-β-carboline bromide] | > 10 | 34.9 ± 1.8 tu % | – | – | – |
| Cn1c2ccccc2c2cc[n+](-c3c(F)cccc3F)cc21.[Br-] [Compound B29, 9-Methyl-2-(2,6-difluorophenyl)-β-carboline bromide] | ~10 | 48.5 ± 3.1 pq % | – | – | – |
| Cn1c2ccccc2c2cc[n+](-c3cc(Cl)cc(Cl)c3)cc21.[Br-] [Compound B31, 9-Methyl-2-(3,5-dichlorophenyl)-β-carboline bromide] | > 10 | 18.9 ± 2.5 v % | – | – | – |
| COc1ccc2c(c1)c1cc[n+](-c3ccccc3)cc1n2C.[Br-] [Compound B34, 6-Methoxy-9-methyl-2-phenyl-β-carboline bromide] | – | 85.7 ± 2.5 ghi % | – | – | 0.94 ± 0.23 |
| Cc1ccc2c(c1)c1cc[n+](-c3ccccc3)cc1n2C.[Br-] [Compound B35, 6,9-Dimethyl-2-phenyl-β-carboline bromide] | – | 88.6 ± 2.5 efg % | – | – | 0.42 ± 0.15 |
| Cn1c2cc(F)ccc2c2cc[n+](-c3ccccc3)cc21.[Br-] [Compound B36, 7-Fluoro-9-methyl-2-phenyl-β-carboline bromide] | – | 76.2 ± 1.1 k % | – | – | 2.61 ± 0.51 |
| Cn1c2cc(Cl)ccc2c2cc[n+](-c3ccccc3)cc21.[Br-] [Compound B37, 7-Chloro-9-methyl-2-phenyl-β-carboline bromide] | – | 89.9 ± 0.7 def % | – | – | 0.57 ± 0.08 |
| CCn1c2ccccc2c2cc[n+](-c3ccccc3)cc21.[Br-] [Compound B38, 9-Ethyl-2-phenyl-β-carboline bromide] | – | 87.8 ± 1.1 efgh % | – | – | 0.76 ± 0.21 |
| CCCn1c2ccccc2c2cc[n+](-c3ccccc3)cc21.[Br-] [Compound B39, 9-Propyl-2-phenyl-β-carboline bromide] | – | 78.8 ± 0.9 jk % | – | – | 3.08 ± 0.66 |
| CC(C)n1c2ccccc2c2cc[n+](-c3ccccc3)cc21.[Br-] [Compound B40, 9-Iso-propyl-2-phenyl-β-carboline bromide] | – | 86.9 ± 0.8 fgh % | – | – | 0.54 ± 0.16 |
